Paper PMC6151569 (Molecules : A Journal of Synthetic Chemistry and Natural …, 2017)
Where two headings read alike, the source gives them in different places.

Key:
[1] = HLM stability test with LC-MS metabolite screening; assay type: in vitro ADME, human; settings: for Degradation: compound remaining, AVERAGE: HLM; for biotransformation / degradation: after 4 h of incubation with HLM; for compound present / remaining unmetabolized: after incubation time of 4 h with HLM
Description: Pooled human liver microsomes (adult male & female) were purchased from Merck (Schnelldorf, Germany). These microsomes were characterized in protein and CYP content. All incubations (final total volume 1050 µL) were made in the presence of an NADPH-regenerating system, consisting of 5 mM Glucose-6-phosphate, 5 U/mL Glucose-6-phosphate dehydrogenase and 1 mM NADP^+. The substrate (100 μM), the NADPH regenerating system and 4 mM MgCl2 × 6 H2O in 0.1 M Tris buffer (pH 7.4 at 37 °C) were preincubated for 5 min in an incubator at 37 °C and 750 rpm. The incubation mix was split into 50 μL aliquots and the reaction was started by addition of the HLM. Thereby the microsomal protein content was standardized to 1 mg/mL. To follow the course of metabolism, the reaction tubes were quenched at selected time points (0, 10, 20, 30, 60, 120, 180 and 240 min) by adding 100 μL internal standard at a concentration of 22.5 µM in MeCN. The samples were vortexed for 30 s and centrifuged (19,800 relative centrifugal force/4 °C/10 min). The supernatant was directly used for LC-MS analysis (for detailed LC-MS conditions, see supplementary materials). […] In all incubations, a limit of 1% organic solvent was not exceeded. […]
Screening of Metabolites by LC-MS Analysis
Metabolite formation was analyzed with an Alliance 2695 Separations Module (Waters GmbH, Eschborn). Sam ples maintained at 4°C, the column tem perature was set to 40°C and inj ection volume was 10 μL. The chromatographic separation for analytes 1 and ML3404 was performed on a Phenomenex Synergi Max-RP column (150 x 4.6 mm; 5 μm); LN950 and 2 on a Phenomenex Synergi Polar-RP column (150 x 4.6 mm; 5 μm) with a precolumn of the same material, respectively. An isocratic gradient of 8.5 min with 30% solvent A (90% H2O, 10% ACN, 0.1% formic acid) and 70% solvent B (ACN, 0.1% formic acid) at a flow rate of 400 μL/min was used for LN950. 1 and ML3404 were chromatographically separated by a binary gradient of 11.25 min with the equal solvents as mentioned before at a flow rate of 400 μL/min. The initial composition of 10% B was held for 20 sec, followed by a linear gradient up to 85% B in 5.8 min, holding for 30 sec, immediately changing to 10% B and reequilibrating at the end. The detection was performed on a Micromass Quattro micro triple quadrupole mass spectrometer (Waters GmbH, Eschborn) using the electrospray-ionization in the positive-mode. Correspondent to the analyte the spray voltage was set to 3.0-4.0 kV. The heated capillary o perated at 250°C and the desolvation gas flow worked at 500 L/h.

[2] = tested on: LPS-stimulated TNF-α release from human whole blood; settings: cited from earlier work
p38α MAP kinase [3] = target: T1, p38α MAP kinase (Homo sapiens, UniProt Q16539); settings: read-out: FP Assay p38α Ki; cited from earlier work
CYP2C9 = target: T2, CYP2C9 (Homo sapiens, UniProt P11712); assay: CYP inhibition (fluorimetric detection) assay; assay type: in vitro ADME; settings: recombinant human CYP2C9, read-out: (%) inhibition of CYP 2C9
T2 construct: purchased Eurofins Panlabs Inc. (contract assay)
Description: (§1) CYP inhibition (fluorimetric detection) assay was performed by Eurofins Panlabs Inc. (St. Charles, MO, USA) with human recombinant CYP enzyme and the appropriate CYP substrate.

CYP1A2 = target: T3, CYP1A2 (Homo sapiens, UniProt P05177); assay: CYP inhibition (fluorimetric detection) assay; assay type: in vitro ADME; settings: recombinant human CYP1A2, read-out: (%) inhibition of CYP 1A2
T3 construct: purchased Eurofins Panlabs Inc. (contract assay)
T3 sequence (P05177 1-516): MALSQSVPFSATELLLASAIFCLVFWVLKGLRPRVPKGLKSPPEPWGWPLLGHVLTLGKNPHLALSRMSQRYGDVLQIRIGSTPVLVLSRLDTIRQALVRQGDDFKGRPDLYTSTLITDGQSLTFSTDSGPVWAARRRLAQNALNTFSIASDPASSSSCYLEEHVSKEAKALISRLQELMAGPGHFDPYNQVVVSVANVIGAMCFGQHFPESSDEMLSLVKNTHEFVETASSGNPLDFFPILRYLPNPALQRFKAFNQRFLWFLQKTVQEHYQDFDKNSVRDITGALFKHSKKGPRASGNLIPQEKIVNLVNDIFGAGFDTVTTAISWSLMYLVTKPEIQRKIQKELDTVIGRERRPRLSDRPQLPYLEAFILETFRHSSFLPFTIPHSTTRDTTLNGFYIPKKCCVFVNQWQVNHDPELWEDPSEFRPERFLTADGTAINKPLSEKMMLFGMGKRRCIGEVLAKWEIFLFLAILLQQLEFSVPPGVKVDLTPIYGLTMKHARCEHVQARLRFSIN
Description: as §1

CYP2D6 = target: T4, CYP2D6 (Homo sapiens, UniProt P10635); assay: CYP inhibition (fluorimetric detection) assay; assay type: in vitro ADME; settings: recombinant human CYP2D6, read-out: (%) inhibition of CYP 2D6
T4 construct: purchased Eurofins Panlabs Inc. (contract assay)
Description: as §1

CYP3A4 = target: T5, CYP3A4 (Homo sapiens, UniProt P08684); assay: CYP inhibition (fluorimetric detection) assay; assay type: in vitro ADME; settings: recombinant human CYP3A4, read-out: (%) inhibition of CYP 3A4
T5 construct: purchased Eurofins Panlabs Inc. (contract assay)
Description: as §1

CYP2C19 = target: T6, CYP2C19 (Homo sapiens, UniProt P33261); assay: CYP inhibition (fluorimetric detection) assay; assay type: in vitro ADME; settings: recombinant human CYP2C19, read-out: (%) inhibition of CYP 2C19
T6 construct: purchased Eurofins Panlabs Inc. (contract assay)
Description: as §1

[4] = tested on: LPS-stimulated TNF-α release from human whole blood; assay: HWB assay, inhibition of LPS-stimulated TNF-α release; assay type: cell-based; settings: n = 2
Description: (§2) 2-Alkylsulfanyl imidazoles 1 and 2 were evaluated in an enzyme-linked immunosorbent assay (ELISA) as well as in a fluorescence polarization (FP)-based assay for their ability to inhibit and bind to the p38α MAP kinase. Moreover, the ability of the novel compounds to inhibit the LPS-stimulated TNF-α release in HWB was tested. In this ex vivo assay, the efficacy of the inhibitors is determined more specifically with regard to pharmacokinetic characteristics such as cellular permeability and plasma protein binding.

[5] = male and female human liver microsomes; cited from earlier work
[6] = rat liver microsomes; cited from earlier work
[7] = mouse liver microsomes; cited from earlier work
p38α MAP kinase [8] = target: T1, p38α MAP kinase; settings: metabolite of ML3403; cited from earlier work
[9] = tested on: CYP1A2, CYP2C9, CYP2C19, CYP2D6 and CYP3A4; assay: CYP inhibition screening, statements on the whole panel; assay type: in vitro ADME, human; settings: human
Description: as §1

p38α MAP kinase [10] = target: T1, p38α MAP kinase; assay: fluorescence polarization (FP)-based binding assay; settings: for increase in binding affinity toward p38α MAP kinase relative to the 2-alkylsulfanylimidazole counterpart: 1 vs ML3403, 2 vs LN950; for Ki: n = 3
Description: as §2

p38α MAP kinase [11] = target: T1, p38α MAP kinase; assay: ELISA assay, inhibition of p38α MAP kinase; assay type: biochemical; settings: for IC50: n = 3
Description: as §2

[12] = tested on: CYP isoforms 1A2, 2C9, 2C19, 2D6 and 3A4; assay: CYP inhibition screening, statements on the whole panel; assay type: in vitro ADME, human
Description: as §1

T5 sequence (P08684 whole entry): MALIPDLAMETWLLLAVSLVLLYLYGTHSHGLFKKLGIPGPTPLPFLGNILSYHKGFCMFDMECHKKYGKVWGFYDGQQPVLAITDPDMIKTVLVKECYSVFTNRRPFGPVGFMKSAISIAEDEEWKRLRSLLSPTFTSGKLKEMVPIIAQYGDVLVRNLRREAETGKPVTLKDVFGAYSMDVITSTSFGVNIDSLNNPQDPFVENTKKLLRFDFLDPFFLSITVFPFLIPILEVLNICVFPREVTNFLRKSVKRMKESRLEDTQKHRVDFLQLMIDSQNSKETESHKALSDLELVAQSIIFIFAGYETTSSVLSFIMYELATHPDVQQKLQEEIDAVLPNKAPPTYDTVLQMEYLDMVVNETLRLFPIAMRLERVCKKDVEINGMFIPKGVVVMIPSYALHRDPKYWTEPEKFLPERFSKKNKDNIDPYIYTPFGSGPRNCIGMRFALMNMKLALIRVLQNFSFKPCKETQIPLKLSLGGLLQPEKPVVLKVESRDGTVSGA
T1 sequence (Q16539 whole entry): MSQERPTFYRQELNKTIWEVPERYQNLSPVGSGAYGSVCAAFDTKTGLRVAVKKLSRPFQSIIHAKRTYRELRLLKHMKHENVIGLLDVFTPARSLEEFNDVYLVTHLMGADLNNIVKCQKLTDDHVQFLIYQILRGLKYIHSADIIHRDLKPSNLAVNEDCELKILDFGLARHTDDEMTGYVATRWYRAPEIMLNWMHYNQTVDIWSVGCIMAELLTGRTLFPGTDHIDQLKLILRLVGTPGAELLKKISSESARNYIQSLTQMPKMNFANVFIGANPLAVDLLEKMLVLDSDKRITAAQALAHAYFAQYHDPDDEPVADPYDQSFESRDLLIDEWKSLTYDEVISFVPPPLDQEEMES
T2 sequence (P11712 whole entry): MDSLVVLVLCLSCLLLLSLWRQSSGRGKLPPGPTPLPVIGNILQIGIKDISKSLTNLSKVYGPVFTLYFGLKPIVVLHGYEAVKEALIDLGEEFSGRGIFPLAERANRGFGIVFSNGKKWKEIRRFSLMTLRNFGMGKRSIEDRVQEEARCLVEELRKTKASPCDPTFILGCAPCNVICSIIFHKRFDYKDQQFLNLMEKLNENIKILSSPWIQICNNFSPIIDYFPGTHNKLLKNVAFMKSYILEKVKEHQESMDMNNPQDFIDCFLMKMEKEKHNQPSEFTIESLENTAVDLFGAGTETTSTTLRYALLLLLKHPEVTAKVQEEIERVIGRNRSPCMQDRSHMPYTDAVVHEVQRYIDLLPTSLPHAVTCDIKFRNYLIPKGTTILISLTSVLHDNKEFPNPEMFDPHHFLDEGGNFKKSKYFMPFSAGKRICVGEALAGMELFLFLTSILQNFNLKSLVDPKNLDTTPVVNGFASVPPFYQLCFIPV
T6 sequence (P33261 whole entry): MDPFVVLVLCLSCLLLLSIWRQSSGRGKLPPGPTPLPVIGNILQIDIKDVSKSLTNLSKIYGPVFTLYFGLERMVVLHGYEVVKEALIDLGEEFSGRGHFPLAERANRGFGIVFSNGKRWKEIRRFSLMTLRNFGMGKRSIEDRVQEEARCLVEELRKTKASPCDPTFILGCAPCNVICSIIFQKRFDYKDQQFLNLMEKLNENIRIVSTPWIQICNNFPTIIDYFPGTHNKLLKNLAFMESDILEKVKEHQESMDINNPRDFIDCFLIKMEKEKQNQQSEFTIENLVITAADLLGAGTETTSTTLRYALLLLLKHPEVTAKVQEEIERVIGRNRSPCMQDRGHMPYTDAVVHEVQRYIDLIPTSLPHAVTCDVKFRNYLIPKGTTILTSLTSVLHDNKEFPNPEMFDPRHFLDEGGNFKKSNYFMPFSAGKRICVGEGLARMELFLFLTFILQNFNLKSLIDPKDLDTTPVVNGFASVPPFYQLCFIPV
T4 sequence (P10635 whole entry): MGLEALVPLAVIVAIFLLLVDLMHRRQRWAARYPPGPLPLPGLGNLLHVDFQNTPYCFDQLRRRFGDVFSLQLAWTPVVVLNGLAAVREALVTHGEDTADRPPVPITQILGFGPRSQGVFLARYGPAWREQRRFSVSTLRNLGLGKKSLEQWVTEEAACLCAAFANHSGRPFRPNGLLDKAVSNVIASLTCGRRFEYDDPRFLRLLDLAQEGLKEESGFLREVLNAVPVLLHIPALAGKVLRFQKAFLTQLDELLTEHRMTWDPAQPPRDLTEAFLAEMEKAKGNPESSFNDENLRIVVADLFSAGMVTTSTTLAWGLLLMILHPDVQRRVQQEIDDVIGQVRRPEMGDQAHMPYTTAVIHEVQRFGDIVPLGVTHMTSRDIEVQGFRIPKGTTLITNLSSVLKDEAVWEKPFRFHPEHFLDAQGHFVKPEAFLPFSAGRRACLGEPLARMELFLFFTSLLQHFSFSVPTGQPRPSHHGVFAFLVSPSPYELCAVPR

Row | Structure (SMILES) | Degradation: compound remaining, AVERAGE ([1]; 0 min) [%] | Degradation: compound remaining, AVERAGE ([1]; 10 min) [%] | Degradation: compound remaining, AVERAGE ([1]; 20 min) [%] | Degradation: compound remaining, AVERAGE ([1]; 30 min) [%] | Degradation: compound remaining, AVERAGE ([1]; 60 min) [%] | Degradation: compound remaining, AVERAGE ([1]; 120 min) [%] | Degradation: compound remaining, AVERAGE ([1]; 180 min) [%] | Degradation: compound remaining, AVERAGE ([1]; 240 min) [%] | biotransformation / degradation [1] [%] | inhibition at 10 µM (CYP2C9) [%] | inhibition at 10 µM (CYP1A2) [%] | inhibition at 10 µM (CYP2D6) [%] | inhibition at 10 µM (CYP3A4) [%] | inhibition at 10 µM (CYP2C19) [%] | IC50 [4] [nM] | compound present / remaining unmetabolized [1] | inhibition at 10 µM [9] [%] | increase in binding affinity toward p38α MAP kinase relative to the 2-alkylsulfanylimidazole counterpart (p38α MAP kinase [10]) [fold] | Ki (p38α MAP kinase [10]) [nM] | IC50 (p38α MAP kinase [11]) [nM] | also measured
1 | CC(C)C(C)Nc1cc(-c2nc(SCCO)[nH]c2-c2ccc(F)cc2)ccn1 (stereo not shown) [LN950, 2-((5-(4-fluorophenyl)-4-(2-((3-methylbutan-2-yl)amino)pyridin-4-yl)-1H-imidazol-2-yl)thio)ethan-1-ol, reference compound] | 100.00 | 86.86 | 77.42 | 61.96 | 51.99 | 37.23 | 32.10 | 28.49 | > 70 | 91.5 | 28 | 41.5 | 61 | 63 |  |  |  |  |  |  | IC50 ([2]; LPS-stimulated human whole blood, read-out: HWB Assay TNF-α IC50): 37 ± 4 nM; Ki (p38α MAP kinase [3]): 4 ± 1 nM
2 | CSc1nc(-c2ccnc(NC(C)c3ccccc3)c2)c(-c2ccc(F)cc2)[nH]1 (stereo not shown) [ML3403, 4-(5-(4-fluorophenyl)-2-(methylthio)-1H-imidazol-4-yl)-N-(1-phenylethyl)pyridin-2-amine, reference compound] | 100.00 | 80.59 | 68.97 | 57.93 | 42.80 | 31.72 | 24.06 | 16.25 |  |  |  |  |  |  | 2980 ± 874 | less than 20% |  |  |  |  | half-life at 100 µM ([1]; both sexes, human, pooled human liver microsomes, pH 7.4, pooled HLM, this study, read-out: in vitro half-life (converted)): 51.6 min; in vitro half-life [5]: 32.7 min; in vitro half-life [6]: 11.4 min; in vitro half-life [7]: 5.9 min; IC50 ([2]; printed in Figure 1, known inhibitors, read-out: IC50 (TNF-α)): 2700 nM
3 | CC(Nc1cc(-c2nc([S+](C)[O-])[nH]c2-c2ccc(F)cc2)ccn1)c1ccccc1 (stereo not shown) [ML3603] |  |  |  |  |  |  |  |  |  |  |  |  |  |  |  |  |  |  |  |  | activity on p38α MAP kinase (p38α MAP kinase [8]): active
4 | CCc1nc(-c2ccc(F)cc2)c(-c2ccnc(NC(C)c3ccccc3)c2)[nH]1 (stereo not shown) [compound 1, 4-(2-Ethyl-4-(4-fluorophenyl)-1H-imidazol-5-yl)-N-(1-phenylethyl)pyridin-2-amine] | 100.00 | 92.72 | 89.75 | 87.96 | 86.27 | 83.65 | 80.90 | 79.75 | 20 | 85.1 | 85.6 | 90.2 | 97.6 | 71 | 2539 ± 20 | up to 80% | > 70 | 4 | 11 ± 3 | 25 ± 2 | 
5 | CC(C)C(C)Nc1cc(-c2[nH]c(CCCO)nc2-c2ccc(F)cc2)ccn1 (stereo not shown) [compound 2, 3-(4-(4-Fluorophenyl)-5-(2-((3-methylbutan-2-yl)amino)pyridin-4-yl)-1H-imidazol-2-yl)propan-1-ol] | 100.00 | 97.15 | 93.57 | 91.84 | 91.99 | 91.57 | 90.42 | 89.73 | 10 | 61.9 | 69.4 | 78.8 | 92.1 | 83.6 | 32 ± 1 |  | > 60 | 4 | 1 ± 0.2 | 11 ± 5 | CYP test concentration of 10 µM relative to the IC50 value in the kinase activity assay [12]: ~1000 fold; more active than reference compound ML3403 (p38α MAP kinase [11]; p38α MAP kinase): 3.6 fold
